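Compound exposure: 48 hours, 5 concentrations, 96-well plates. Abbreviation: GI50, concentration required for 50% inhibition of growth. TGI is the concentration that stops growth completely.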
What was measured:
Assay in all cases: NCI anticancer screen, dose series, 48 h
[1] = tested on: MCF7 breast
[2] = tested on: MDA-MB-231 breast
[3] = tested on: MDA-MB-435
[4] = tested on: NCI-H226 lung
[5] = tested on: RPMI-8226 leukemia
[6] = tested on: SF-268 CNS
[7] = tested on: SF-539 CNS
[8] = tested on: SK-MEL-5 melanoma
[9] = tested on: SW-620 colon
[10] = tested on: UACC-257 melanoma

Structure (SMILES)	GI50 [1] [nM]	TGI [1] [µM]	GI50 [2] [nM]	TGI [2] [µM]	GI50 [3] [nM]	TGI [3] [µM]	GI50 [4] [nM]	TGI [4] [µM]	GI50 [5] [nM]	TGI [5] [µM]	GI50 [6] [nM]	TGI [6] [µM]	GI50 [7] [nM]	TGI [7] [µM]	GI50 [8] [nM]	TGI [8] [µM]	GI50 [9] [nM]	TGI [9] [µM]	GI50 [10] [nM]	TGI [10] [µM]
C#Cc1cccc(Oc2ccc(NC(=O)CCl)cc2)c1	64400	> 82.5	> 82500	> 82.5	> 82500	> 82.5	> 82500	> 82.5	> 82500	> 82.5	> 82500	> 82.5	> 82500	> 82.5	33600	> 82.5	24800	> 82.5	> 82500	> 82.5
O=[N+]([O-])/C=C\c1c[nH]c2ccc(OCc3ccccc3)cc12	–	73.7	–	18	–	4.73	–	13.4	–	4.62	–	25.6	–	22.6	–	19.2	–	7.31	–	3.73
C1=C(c2ccccc2)C(c2ccc(OCCN3CCCCC3)cc2)Oc2ccccc21 (centres undefined)	441	1.88	1860	3.51	1640	3.03	4080	16.7	2250	5.02	2660	9.93	1620	3.08	1780	3.16	1830	3.62	2020	4.15
C[C@@H](Oc1ccc2[nH]nc(/C=C/c3cnn(CCO)c3)c2c1)c1c(Cl)cncc1Cl	57.3	4.06	357	> 26.5	866	3.12	30.4	–	1540	4.41	177	1.49	35	0.268	963	3.6	57.4	> 100	1430	6.29
CS(=O)(=O)CCn1c(=O)c(Oc2ccc(F)cc2F)cc2cnc(NC3CCOCC3)nc21	> 25000	> 25	> 25000	> 25	> 25000	> 25	> 25000	> 25	> 25000	> 25	> 25000	> 25	> 25000	> 25	> 25000	> 25	> 25000	> 25	> 25000	> 25
COc1cc(NCC2COc3c(ccc(OC)c3OC)C2=O)c([N+](=O)[O-])cc1OC (centres undefined)	–	> 100	–	> 100	–	> 100	–	> 100	–	> 100	–	> 100	–	> 100	–	> 100	–	> 100	–	> 100
C/C1=C/C(=O)O[C@@H]2C[C@@H](CC[C@H](C)/C=C\C=C\CC1)O[C@@](OCCc1ccccc1)([C@@H]1CSC(=O)N1)C2	5370	> 17.5	94.9	> 17.5	324	6.12	98.5	> 17.5	3280	> 17.5	78.4	0.377	54.3	> 17.5	226	> 6.42	7040	> 17.5	175	17.3
O=C(CNc1ncco1)Nc1ccc(S(=O)(=O)c2ccc(NC(=O)CNc3ncco3)cc2)cc1	1340	5.66	2660	7.38	2080	7.26	2320	7.09	1110	3.01	1530	4.54	1700	3.9	1520	2.88	1750	4.13	1850	4.86
